As a reminder, the logP is a log measure of how a compound divides between an organic and an aqueous phase. Low values mean a more hydrophilic compound, high ones a more lipophilic compound.

A short description of this series: method code SF-HPLC, from DOI: 10.1002/qsar.200300824.
`Cc1nc(-c2cc(=O)oc3ccccc23)no1` gave a logP of 2.12.

Compound `Cc1ccc(NC(=NO)c2c(Cl)c(=O)oc3ccccc23)cc1` gave a log partition coefficient (logP) of 2.89.

For the compound `COc1ccc(C2=NOC(c3cc(=O)oc4ccccc34)O2)cc1` (stereo not drawn), the log partition coefficient (logP) stood at 3.04.

`O=c1cc(-c2noc(=S)n2-c2ccccc2)c2ccccc2o1` returned a logP of 3.03.

In the case of `CC1NC(c2cc(=O)oc3ccccc23)=NO1` (stereo not drawn), the log partition coefficient (logP) stood at 1.93.

For `O=c1cc(C2=NOS(=O)N2c2ccccc2)c2ccccc2o1` (stereo not drawn), the logP was determined as 2.16.

Consider `COc1ccc(-c2noc(-c3cc(=O)oc4ccccc34)n2)cc1`, for which the logP was determined as 3.07.

For the compound `O=c1oc2ccccc2c(C(=NO)Nc2ccccc2)c1Cl`, the logP is 2.58.

In turn, `O=c1cc(C2=NOCN2)c2ccccc2o1` gave a lipophilicity (logP) of 1.98.

Consider `CC(=O)ON=C(N)c1cc(=O)oc2ccccc12`, for which the logP was 1.

`O=c1cc(C2=NOCN2c2ccccc2)c2ccccc2o1` came in with a logP of 2.45.

`O=c1cc(-c2noc(-c3ccccc3)n2)c2ccccc2o1`: the logP is 3.22.

`O=c1oc2ccccc2c(C(=NO)NC2CCCCC2)c1Cl`: the logP was 2.78.

For the compound `COc1ccc(-c2nc(-c3cc(=O)oc4ccccc34)no2)cc1`, the logP came to 2.98.

Turning to `O=c1oc2ccccc2c(C(CCO)=NO)c1Cl`, the logP amounted to 0.22.

The compound `O=c1cc(-c2ncon2)c2ccccc2o1` yielded a logP of 1.95.

The compound `CC1ON=C(c2cc(=O)oc3ccccc23)N1c1ccccc1` (stereo not drawn) gave a logP of 2.7.

For the compound `O=c1cc(C=NNc2ccccc2)c2ccccc2o1`, the logP came to 3.63.

The record behind these values is the SangsterLogP compilation.
